Measurements from US7285569B2, “Tricycles, their manufacture and use as pharmaceutical agents” (Hoff Hoffmann-La Roche Inc., priority 2004, dated 2007).

Tests used:
[1] = system: HCT 116 cells; assay: CellTiter-Glo assay in HCT 116 cells (antiproliferative activity); type: cell-based; details: HCT 116 human colon carcinoma cells, 5 days (120 h) incubation, CellTiter-Glo luminescence
Text: Antiproliferative Activity
CellTiter-Glo™ Assay in HCT 116 Cells
The CellTiter-Glo™ Luminescent Cell Viability Assay (Promega) is a homogeneous method of determining the number of viable cells in culture based on quantitation of the ATP present, which signals the presence of metabolically active cells.
HCT 116 cells (human colon carcinoma, ATCC-No. CCI-247) were cultivated in RPMI 1640 medium with GlutaMAX™ I (Invitrogen, Cat-No. 61870-010), 2.5% Fetal Calf Serum (FCS, Sigma Cat-No. F4135 (FBS)); 100 Units/ml penicillin/100 μg/ml streptomycin (=Pen/Strep from Invitrogen Cat. No. 15140). For the assay the cells were seeded in 384 well plates, 1000 cells per well, in the same medium. The next day the test compounds were added in various concentrations ranging from 30 μM to 0.0015 μM (10 concentrations, 1:3 diluted). After 5 days the CellTiter-Glo™ assay was done according to the instructions of the manufacturer (CellTiter-Glo™ Luminescent Cell Viability Assay, from Promega). In brief: the cell-plate was equilibrated to room temperature for approximately 30 minutes and than the CellTiter-Glo™ reagent was added. The contents were carefully mixed for 15 minutes to induce cell lysis. After 45 minutes the luminescent signal was measured in Victor 2, (scanning multiwell spectrophotometer, Wallac).
Medium: RPMI 1640 with GlutaMAX™ I (Invitrogen, Cat-Nr. 61870), 5% FCS (Sigma Cat.-No. F4135), Pen/Strep (Invitrogen, Cat No. 15140).
HCT116 (ATCC-No. CCI-247): 1000 cells in 60 μl per well of 384 well plate (Greiner 781098, μClear-plate white)
After seeding incubate plates 24 h at 37° C., 5% CO2
2nd. Day: Induction (Treatment with Compounds, 10 Concentrations):
In order to achieve a final concentration of 30 μM as highest concentration 3.5 μl of 10 mM compound stock solution were added directly to 163 μl media. Then step e) of the dilution procedure described below, was followed.
In order to achieve the second highest to the lowest concentrations, a serial dilution with dilution steps of 1:3 was followed according to the procedure (a-e) as described here below: • for the second highest concentration add 10 μl of 10 mM stock solution of compound to 20 μl dimethylsulfoxide (DMSO) • dilute 8×1:3 (always 10 μl to 20 μl DMSO) in this DMSO dilution row (results in 9 wells with concentrations from 3333.3 μM to 0.51 μM) • dilute each concentration 1:47.6 (3.5 μl compound dilution to 163 μl media) • add 10 μl of every concentration to 60 μl media in the cell plate resulting in final concentration of DMSO: 0.3% in every well and resulting in 10 final concentration of compounds ranging from 30 μM to 0.0015 μM. • Each compound is tested in triplicate. • Incubate 120 h (5 days) at 37° C., 5% CO2 Analysis:
Add 30 μl CellTiter-Glo™ Reagent (prepared from CellTiter-Glo™ Buffer and CellTiter-Glo™ Substrate (lyophilized) purchased from Promega) per well, • shake 15 minutes at room temperature • incubate further 45 minutes at room temperature without shaking Measurement:
Victor 2 scanning multiwell spectrophotometer (Wallac), Luminescence mode (0.5 sec/read, 477 nm)
Determine IC50 using a non-linear curve fit (XLfit software (ID Business Solution Ltd., Guilford, Surrey, UK))

[2] = molecular target: T1, Aurora A (Homo sapiens, UniProt O14965); assay: IC50 determination for inhibitors of Aurora A (96 MTP-ELISA); type: biochemical; details: His4-tagged full-length Aurora A 250 ng/ml, PKB-GSK2 200 nM, ATP 4 μM, 90 min at room temperature; read-out: IC50 Aurora A kinase inhibition
T1 construct: C-terminally Histidine4 (His4)-tagged Aurora A full-length protein
T1 sequence (O14965 1-403): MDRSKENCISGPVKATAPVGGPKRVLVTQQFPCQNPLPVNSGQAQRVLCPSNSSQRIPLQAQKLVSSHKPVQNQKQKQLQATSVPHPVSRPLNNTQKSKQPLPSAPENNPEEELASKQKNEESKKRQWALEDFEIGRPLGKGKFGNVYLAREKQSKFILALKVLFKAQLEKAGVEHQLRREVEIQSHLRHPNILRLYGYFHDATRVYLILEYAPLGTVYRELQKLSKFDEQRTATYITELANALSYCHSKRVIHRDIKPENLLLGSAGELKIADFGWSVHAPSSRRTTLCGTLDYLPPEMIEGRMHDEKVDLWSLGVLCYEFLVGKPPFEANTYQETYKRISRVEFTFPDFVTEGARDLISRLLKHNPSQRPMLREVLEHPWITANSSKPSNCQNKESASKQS
Text: IC50 Determination for Inhibitors of Aurora A
Aurora A is a serine threonine kinase involved in spindle assembly and chromosome segregation.
The assay is a typically ELISA-type assay where biotinylated substrate (PKB-GSK2) is phosphorylated. Phosphorylation is detected by peroxidase (POD) labelled polyclonal antibody (PAK<M-Ig>S-IgG-POD) and phosphopeptide monoclonal antibody (Mab) (MAK<P-GSK>M-27E5-IgG). The assay is validated for IC50-determination.
Aurora A-His-4 C-terminally Histidine4 (His4)-tagged Aurora A full-length protein, stock solution 0.7 mg/ml, final conc.: 250 ng/ml
PKB-GSK2 biotinylated peptide derived from human GSK3-alpha sequence (Biotin-SGRARTSSFAEPGG-CONH2), stock solution 600 μM, final conc.: 200 nM
ATP Adenosine-5′-triphosphate 1 mM, diluted in kinase buffer, (Roche Diagnostics GmbH, Cat. No.: 127531-001,), final conc.: 4 μM
Kinase buffer 50 mM TRIS, 10 mM MgCl2, 1 mM DTT, 0.1% Tween 20, pH 7.8
This assay is performed in 96-well format for IC50 determination with 5 samples (each with 8 concentrations by twofold testing), 100 μl incubation volume and the following plate layout:
Step/Action 1. Sample preparation: add 24 μl per well samples (descending sequence) diluted in kinase buffer to assay plate (final conc. for DMSO 1%). 2. Add directly 16 μl Aurora-A-his-4 diluted in kinase buffer to assay plate. 3. Add directly 40 μl per well PKB-GSK2/ATP mixture to assay plate, (final conc.: Aurora A=250 ng/ml, GSK2=200 nM, ATP=4 μM). Negative control: without ATP. 4. Incubate assay plate for exactly 90 min at room temperature. 5. Stop reaction by adding 20 μl EDTA in all wells. 6. Wash assay plate 3× with 200 μl washing buffer per well. 7. Add 100 μl MAK<P-GSK>M27E5-IgG (1:10000) and PAK<M-Ig>S-IgG-POD (1:6000) dissolved in 3% BSA/PBS-T to assay plate per well. 8. Incubate assay plate for 60 min at room temperature. 9. Wash assay plate 3× with 200 μl washing buffer per well 10. Add 100 μl ABTS solution to assay plate per well, incubate for approx. 4 min at RT on MTP shaker. 11. Measure absorption at 405/492 nm. 12. Calculate % inhibition as: (1−(Esample−ENC)/(EPC−ENC))×100 13. Calculate IC50 using a non-linear curve fit (XLfit software (ID Business Solution Ltd., Guilford, Surrey, UK))

Row | SMILES | IC50 [1] | IC50 [2]
1 | Cc1cc(-c2nc3cc4[nH]c(=O)n(C)c4cc3[nH]2)n[nH]1 [Example 10, 3-Methyl-6-(5-methyl-1H-pyrazol-3-yl)-3,5-dihydro-1H-benzo[1,2-d;4,5-d′]diimidazol-2-one] | – | 10 to 500 nM
2 | CCc1[nH]nc(-c2nc3cc4c(cc3[nH]2)C(C)(C)C(=O)N4)c1C [Example 19, 2-(5-Ethyl-4-methyl-1H-pyrazol-3-yl)-7,7-dimethyl-5,7-dihydro-1H-imidazo[4,5-f]indol-6-one] | – | 10 to 500 nM
3 | CC1(C)C(=O)Nc2cc3nc(-c4cc(C5CC5)[nH]n4)[nH]c3cc21 [Example 21, 2-(5-Cyclopropyl-1H-pyrazol-3-yl)-7,7-dimethyl-5,7-dihydro-1H-imidazo[4,5-f]indol-6-one] | – | 10 to 500 nM
4 | CC1(C)CC(=O)Nc2cc3nc(-c4cc(C5CC5)[nH]n4)[nH]c3cc21 [Example 25, 2-(5-Cyclopropyl-1H-pyrazol-3-yl)-8,8-dimethyl-1,5,7,8-tetrahydro-imidazo[4,5-g]quinolin-6-one] | – | 10 to 500 nM
5 | CC1(C)C(=O)Nc2cc3nc(-c4cc(C(F)(F)F)n[nH]4)[nH]c3cc21 [Example 38, 7,7-Dimethyl-2-(5-trifluoromethyl-2H-pyrazol-3-yl)-5,7-dihydro-1H-imidazo[4,5-f]indol-6-one] | 10000 to 100000 nM | –
6 | CCN1C(=O)C(C)(C)c2cc3nc(-c4cc(C(F)(F)F)[nH]n4)[nH]c3cc21 [Example 39, 5-Ethyl-7,7-dimethyl-2-(5-trifluoromethyl-1H-pyrazol-3-yl)-5,7-dihydro-3H-imidazo[4,5-f]indol-6-one] | 100 to 10000 nM | –
7 | O=C1Nc2cc3nc(-c4cc(C5CC5)[nH]n4)[nH]c3cc2C12CCCC2 [Example 43, 2-(5-Cyclopropyl-2H-pyrazol-3-yl)-spiro-5,7-dihydro[cyclopentane-1′,7-imidazo[4,5-f]indol]-6(3H)-one] | 100 to 10000 nM | –
8 | CCN1C(=O)C(C)(C)c2cc3nc(-c4cc(OC)[nH]n4)[nH]c3cc21 [Example 44, 5-Ethyl-2-(5-methoxy-1H-pyrazol-3-yl)-7,7-dimethyl-5,7-dihydro-3H-imidazo[4,5-f]indol-6-one] | 100 to 10000 nM | –
9 | CCN1C(=O)C(C)(C)c2cc3[nH]c(-c4cc(SC)[nH]n4)nc3cc21 [Example 45, 5-Ethyl-7,7-dimethyl-2-(5-methylsulfanyl-1H-pyrazol-3-yl)-5,7-dihydro-1H-imidazo[4,5-f]indol-6-one] | 100 to 10000 nM | –

Further lines, results first:

Row | IC50 [1] | IC50 [2] | SMILES
10 | 100 to 10000 nM | – | CC(C)Cc1cc(-c2nc3cc4c(cc3[nH]2)NC(=O)C42CCCC2)[nH]n1 [Example 8, 2-(5-Isobutyl-2H-pyrazol-3-yl)-spiro-5,7-dihydro[cyclopentane-1′,7-imidazo[4,5-f]indol]-6(3H)-one]
11 | 100 to 10000 nM | – | CCN1C(=O)C(C)(C)c2cc3nc(-c4cc(C)[nH]n4)[nH]c3cc21 [Example 12, 5-Ethyl-7,7-dimethyl-2-(5-methyl-1H-pyrazol-3-yl)-5,7-dihydro-3H-imidazo[4,5-f]indol-6-one]
12 | 1200 nM | – | CCCc1cc(-c2nc3cc4c(cc3[nH]2)N(C)C(=O)C4(C)C)[nH]n1 [Example 14, 5,7,7-Trimethyl-2-(5-propyl-2H-pyrazol-3-yl)-5,7-dihydro-3H-imidazo[4,5-f]indol-6-one]
13 | 100 to 10000 nM | – | CCN1C(=O)C(C)(C)c2cc3nc(-c4cc(CC(C)C)n[nH]4)[nH]c3cc21 [Example 15, 5-Ethyl-2-(5-isobutyl-2H-pyrazol-3-yl)-7,7-dimethyl-5,7-dihydro-3H-imidazo[4,5-f]indol-6-one]
14 | 100 to 10000 nM | – | CC(C)Cc1cc(-c2nc3cc4c(cc3[nH]2)N(C)C(=O)C4(C)C)[nH]n1 [Example 16, 2-(5-Isobutyl-2H-pyrazol-3-yl)-5,7,7-trimethyl-5,7-dihydro-3H-imidazo[4,5-f]indol-6-one]
15 | 100 to 10000 nM | – | CC1(C)C(=O)Nc2cc3nc(-c4cc[nH]n4)[nH]c3cc21 [Example 20, 7,7-Dimethyl-2-(1H-pyrazol-3-yl)-5,7-dihydro-1H-imidazo[4,5-f]indol-6-one]
16 | 100 to 10000 nM | – | CC(C)c1cc(-c2nc3cc4c(cc3[nH]2)C(C)(C)C(=O)N4)[nH]n1 [Example 22, 2-(5-Isopropyl-2H-pyrazol-3-yl)-7,7-dimethyl-5,7-dihydro-1H-imidazo[4,5-f]indol-6-one]
17 | 100 to 10000 nM | – | CN1C(=O)C(C)(C)c2cc3nc(-c4cc[nH]n4)[nH]c3cc21 [Example 30, 5,7,7-Trimethyl-2-(1H-pyrazol-3-yl)-5,7-dihydro-3H-imidazo[4,5-f]indol-6-one]
18 | 100 to 10000 nM | – | CCN1C(=O)C(C)(C)c2cc3nc(-c4cc[nH]n4)[nH]c3cc21 [Example 32, 5-Ethyl-7,7-dimethyl-2-(1H-pyrazol-3-yl)-5,7-dihydro-3H-imidazo[4,5-f]indol-6-one]
19 | 100 to 10000 nM | – | CCCc1cc(-c2nc3cc4c(cc3[nH]2)N(CC)C(=O)C4(C)C)[nH]n1 [Example 33, 5-Ethyl-7,7-dimethyl-2-(5-propyl-2H-pyrazol-3-yl)-5,7-dihydro-3H-imidazo[4,5-f]indol-6-one; compound with acetic acid]
20 | 980 nM | – | CN1C(=O)C(C)(C)c2cc3nc(-c4cc(C(F)(F)F)n[nH]4)[nH]c3cc21 [Example 42, 5,7,7-Trimethyl-2-(5-trifluoromethyl-2H-pyrazol-3-yl)-5,7-dihydro-3H-imidazo[4,5-f]indol-6-one]
